Assay results as given in ChEMBL document CHEMBL1126980, “New, potent anthelmintic and acaricidal agents: 4-deoxy-4-thio-substituted avermectin derivatives” (Bioorg Med Chem Lett, 1993).
Converted amounts (≈) assume the structure as drawn.

Key:
Artemia salina = experiment: Tested in vitro for the biological efficacy using Artemia salina (brine shrimp) immobilization assay; format: functional
Ovis aries [1] = experiment: Tested for the anthelmintic efficacy against Oesphagostomum columbianum at 0.1 mg/kg; range is 91-100%; format: functional
Ovis aries [2] = experiment: Tested for the anthelmintic efficacy against Trichostrongylus axei at 0.1 mg/kg; range is 91-100%; format: functional
Ovis aries [3] = experiment: Tested for the anthelmintic efficacy against Ostertagia circumcincta at 0.1 mg/kg; range is 91-100%; format: functional
[4] = system: Trichostrongylus colubriformis; experiment: Tested in vivo for the biological efficacy using Trichostrongylus colubriformis gerbil assay; format: functional
Ovis aries [5] = experiment: Tested for anthelmintic efficacy against Haemonchus contortus at 0.1 mg/kg; range is 91-100%; format: functional
Ovis aries [6] = experiment: Tested for the anthelmintic efficacy against Cooperia curticei at 0.1 mg/kg; range is 91-100%; format: functional
Tetranychus urticae = experiment: Tested for acaricidal efficacy using a Tetranychus urticae (two-spotted spider mite, TSSM) contact assay; format: functional; parameters: concentration or dose not given beside the values
Caenorhabditis elegans = experiment: Tested in vitro for the biological efficacy using Caenorhabditis elegans binding assay; format: functional, organism-based
Ovis aries [7] = experiment: Tested for the anthelmintic efficacy against Trichostrongylus colubriformis at 0.1 mg/kg; range is 91-100%; format: functional
Ovis aries [8] = experiment: Tested for the anthelmintic efficacy against Cooperia curticei at 0.1 mg/kg; format: functional

Row | SMILES | IC100 (Artemia salina) [ng/mL] | Reduction (Ovis aries [1]) [%] | Reduction (Ovis aries [2]) [%] | Reduction (Ovis aries [3]) [%] | ED85 [4] [mg/kg] | Reduction (Ovis aries [5]) [%] | Reduction (Ovis aries [6]) [%] | Mortality (Tetranychus urticae) [%] | IC50 (Caenorhabditis elegans) [ng/mL] | Reduction (Ovis aries [7]) [%] | Reduction (Ovis aries [8]) [%]
1 | CCC(C)[C@H]1O[C@]2(C=C[C@@H]1C)C[C@@H]1C[C@@H](C/C=C(\C)[C@@H](O[C@H]3C[C@H](OC)[C@@H](O[C@H]4C[C@H](OC)[C@H](S(C)(=O)=O)[C@H](C)O4)[C@H](C)O3)[C@@H](C)/C=C/C=C3\CO[C@@H]4[C@H](O)C(C)=C[C@@H](C(=O)O1)[C@]34O)O2 (stereo partly specified) | 430 | 91 | 91 | 91 | 0.063 | 91 | 91 | 45 | 0.132 (≈ 0.141 nM) | 91 | –
2 | CCC(C)[C@H]1O[C@]2(C=C[C@@H]1C)C[C@@H]1C[C@@H](C/C=C(\C)[C@@H](O[C@H]3C[C@H](OC)[C@@H](O[C@H]4C[C@H](OC)[C@H]([S+](C)[O-])[C@H](C)O4)[C@H](C)O3)[C@@H](C)/C=C/C=C3\CO[C@@H]4[C@H](O)C(C)=C[C@@H](C(=O)O1)[C@]34O)O2 (stereo partly specified) | 870 | 91 | 91 | 91 | 0.031 | 91 | 91 | 64 | 0.262 (≈ 0.285 nM) | 91 | –
3 | CCC(C)[C@H]1O[C@]2(C=C[C@@H]1C)C[C@@H]1C[C@@H](C/C=C(\C)[C@@H](O[C@H]3C[C@H](OC)[C@@H](O[C@H]4C[C@H](OC)[C@@H]([S+](C)[O-])[C@H](C)O4)[C@H](C)O3)[C@@H](C)/C=C/C=C3\CO[C@@H]4[C@H](O)C(C)=C[C@@H](C(=O)O1)[C@]34O)O2 (stereo partly specified) | 430 | 91 | 91 | 91 | 0.016 | 91 | 91 | – | – | 91 | –
4 | CCC(C)[C@H]1O[C@]2(C=C[C@@H]1C)C[C@@H]1C[C@@H](C/C=C(\C)[C@@H](O[C@H]3C[C@H](OC)[C@@H](O[C@H]4C[C@H](OC)[C@@H](O)[C@H](C)O4)[C@H](C)O3)[C@@H](C)/C=C/C=C3\CO[C@@H]4[C@H](O)C(C)=C[C@@H](C(=O)O1)[C@]34O)O2 (stereo partly specified) [AVERMECTIN] | 400 | 91 | 91 | 91 | 0.031 | 91 | 91 | 95 | 0.073 (≈ 0.0836 nM) | 91 | –
5 | CCC(C)[C@H]1O[C@]2(CC[C@@H]1C)C[C@@H]1C[C@@H](C/C=C(\C)[C@@H](O[C@H]3C[C@H](OC)[C@@H](O[C@H]4C[C@H](OC)[C@H](S(=O)(=O)CCO)[C@H](C)O4)[C@H](C)O3)[C@@H](C)/C=C/C=C3\CO[C@@H]4[C@H](O)C(C)=C[C@@H](C(=O)O1)[C@]34O)O2 (stereo partly specified) | 650 | 91 | 91 | 91 | 0.125 | 91 | 91 | 48 | 0.119 (≈ 0.123 nM) | 91 | –
6 | CCC(C)[C@H]1O[C@]2(C=C[C@@H]1C)C[C@@H]1C[C@@H](C/C=C(\C)[C@@H](O[C@H]3C[C@H](OC)[C@H](SCCNC(C)=O)[C@H](C)O3)[C@@H](C)/C=C/C=C3\CO[C@@H]4[C@H](O)C(C)=C[C@@H](C(=O)O1)[C@]34O)O2 (stereo partly specified) | 430 | 91 | 91 | 91 | 0.063 | 91 | – | – | – | 91 | <50
